One assay deals with IFN-γ. As to the kind of experiment: Human primary Th1 (NYTh1) cells, IFN-γ ELISA. The class given is cell-based. The conditions noted are these: data from 8 different experiments combined. As to the method: (§1) Briefly, CD4^+CD45RA^+ T cells, isolated from donor peripheral blood mononuclear cells of healthy donors, are educated in the presence of anti-CD3/CD28 antibodies and various growth factors to obtain either a Thl-like or Th2-like phenotypes as determined by the known cytokine profiles of these two cell types.
Generation of Th1/Th2 cells: Twenty four well plates are coated with 300 µL anti-CD3 Ab (10 µg/ml, in PBS 1-2 h at 37°C or overnight at 4°C), and washed two times with PBS. CD4^+/CD45RA^+ cells at a density of 10^6/ml in RPMI, is prepared and added to RPMI medium containing 10% Hyclone serum/ glutamine and 1-2 µg/ml anti-CD28 Ab. The cells are split in two aliquots. […] The degree of polarization is determined by intracellular staining of cells with anti-IFN-γ and anti-IL-4 antibodies from Pharmingen, and using flow cytometry from Becton Dickinson (BD), according to manufacturers description. […] For compound testing, large quantities of Th1 and Th2 cells derived from a given donor (NYTh1 and NYTh2) were expanded and frozen as aliquots in liquid nitrogen. […]
Re-stimulation by allogeneic cells: Human PBMCs, to be used as alloantigens, are isolated from freshly drawn blood by Ficoll separation. […] Cells are counted and diluted to a final concentration of 2 x 10^6/ml in medium containing 10 µg/ml PHA and 200 units/ml IL-2. […]

The next assay concerns IL-4. As to the kind of experiment: Human primary Th2 cells, anti-CD3/anti-CD28 activated, IL-4 ELISA. It counts as cell-based. The protocol: as §1
Peripheral blood mononuclear cells (PBMC) are prepared from human blood by Ficoll-Hypacque (Pharmacia). The cells are washed two times in Hanks balanced salt solution (HBSS) and counted.
Naive T cells (CD4^+/CD45RA ) are prepared by negative selection method using following antibodies and Dynabeads: anti-CD8, anti-HLA-DR, (where HLA means human leucocyte antigen) anti-CD14, anti-CD16, anti-CD19, anti-CD45RO antibodies (all from R&D Systems, 1-2 µg/ml) are added to the cells, and the cells are kept on ice for 30 min. The cells are washed two times in HBSS, and goat anti- mouse Ig-beads, (bead:target ratio, 5:1) are added. The cells and beads are slowly rotated at 4°C for 20 min. (following the protocol supplied from Dynal). The supernatant is removed and fresh goat anti-mouse Ig-beads are added to the supernatant, which is slowly rotated at 4°C for 20 min. The cells are counted and phenotypically characterized by flow cytometric analysis.
CD4^+/CD45RA^+ cells at a density of 10^6/ml in RPMI, is prepared and added to RPMI medium containing 10% Hyclone serum/ glutamine and 1-2 µg/ml anti-CD28 Ab. The cells are split in two aliquots. For Th1 cells: anti-IL-4 Ab (1-2 µg/ml), IFN-γ (1 µg/ml, or 5000 units/ml) are added to the wells. For Th2 cells: IL-4 (100-200 ng/ml), anti-IFN-γ neutralizing Ab (1-2 µg/ml), anti-IL-12 neutralizing Ab (1-2 µg/ml) are added into the wells. […] The cells are transferred to fresh wells and grown in 200 units/ml IL-2 for 2 weeks by feeding them every other day with IL-2 containing medium and splitting the cultures 1:2 or 1:3 as needed. The degree of polarization is determined by intracellular staining of cells with anti-IFN-γ and anti-IL-4 antibodies from Pharmingen, and using flow cytometry from Becton Dickinson (BD), according to manufacturers description. The cells are stimulated with PHA and alloantigens at day 14 and 28 as described below. Eight days after the second allostimulation the cells can be used for compound screening or frozen for future use. For compound testing, large quantities of Th1 and Th2 cells derived from a given donor (NYTh1 and NYTh2) were expanded and frozen as aliquots in liquid nitrogen. The cells are thawed and cultured as and when needed. The thawed cells are stimulated with alloantigen/PHA combination. The cells are used for compound screening after 8-10 days in culture.
Re-stimulation by allogeneic cells: Human PBMCs, to be used as alloantigens, are isolated from freshly drawn blood by Ficoll separation. […] Cells are counted and diluted to a final concentration of 2 x 10^6/ml in medium containing 10 µg/ml PHA and 200 units/ml IL-2.
Ninetysix well Falcon tissue culture plates (Fisher Scientific) are coated with 100 microliters per well of 10 µg/ml anti-CD3 (PharMingen) antibody in phosphate buffered saline (PBS) and stored at 4°C one day before the experiment.
On the day of assay, anti-CD3 antibody coated plates are washed with PBS once to remove all soluble anti-CD3 antibody. […] All compounds and controls are assayed in triplicates.

Consider `O=C(O)c1[nH]c2ccccc2c1Nc1ccncc1` [Example 28, 3-(4-Pyridinylamino)-1H-indole-2-carboxylic acid], for which the half-inhibitory concentration (IC50) in the assay with IFN-γ is above 10000 nM; with IL-4 (Human primary Th2 cells, combined data from 10 different experiments), 240 nM. The “IL-4 PROTEIN Exp #2” value with IL-4 (10 µM, 18 hrs, ELISA of culture supernatants, stimulated control 625.0+/- 23) was 286.2 ± 19 pg/mL. The activity at 0.01 µM in the assay with IL-4 (Homo sapiens, 0.01 µM, 48 hr, read-out: IL-4 (% control) mean) turned out to be 102%. Moreover, in the assay on IL-4 (Homo sapiens, 0.03 µM, 48 hr, read-out: IL-4 (% control) mean), the activity at 0.03 µM came to 65.3%. Further, the activity at 0.1 µM in the assay on IL-4 (Homo sapiens, 0.1 µM, 48 hr, read-out: IL-4 (% control) mean) came to 59.8%. In the assay on IL-4 (Homo sapiens, 0.3 µM, 48 hr, read-out: IL-4 (% control) mean), the activity at 0.3 µM came to 45%. For the same compound, the activity at 1 µM with IL-4 (Homo sapiens, 1 µM, 48 hr, read-out: IL-4 (% control) mean) amounted to 42.5%. Besides, the activity at 3 µM with IL-4 (Homo sapiens, 3 µM, 48 hr, read-out: IL-4 (% control) mean) was 36.4%. Moreover, the activity at 10 µM in the assay with IL-4 (Homo sapiens, 10 µM, 48 hr, read-out: IL-4 (% control) mean) was determined as 30.8%. For the same compound, the “IFN-γ/ IL-4 Ratio” value in the assay on IL-4 (Human primary Th2 cells, ratio of IC50) is above 41.

Source of the values: EP1501797B1, “3-(SUBSTITUTED AMINO)-1H-INDOLE-2-CARBOXYLIC ACID ESTER AND 3-(SUBSTITUTED AMINO)-BENZO[B]THIOPHENE-2-CARBOXYLIC ACID ESTER DERIVATIVES AS INTERLEUKIN-4 GENE EXPRESSION INHIBITORS” (Aventis Pharmaceuticals Inc., priority 2002, dated 2003).
